Measured values published in patent US5092876A, “Cell attachment peptides derived from amyloid P component” (The United States of America as represented by the …, priority 1989, dated 1992).

What follows are substances tested on cells (assay: Cell attachment assay, peptides/proteins from amyloid P component coated on plates (Table I)). Details: plates coated with peptide/protein (20 uM); average ± SEM.
Type: cell-based
Experimental: All cell types used were obtained from American Type Culture Collection, Rockville, Md. and were maintained in Dulbecco's modified Eagle's medium (DMEM) supplemented with 10% fetal calf serum (FCS). The cells were grown to approximately 80% confluency in Falcon T75 flasks. For cell attachment assays, cells were washed with PBS (pH 7.4), and then detached from the tissue culture flasks with 0.025% trypsin, 0.025% EDTA.
The cells were sedimented by low speed centrifugation, suspended in serum-free Eagle's minimal essential medium (EMEM) containing 0.05% BSA and used immediately in the cell attachment assays.
Cell attachment was assayed as described by Graf et al., Biochemistry 26, 6896-6900 (1987). 24 well plastic culture plates (Linbro, Flow Laboratories, Inc., Va.) were coated with the desired peptides at 25° C. for 16 h in 0.1M bicarbonate buffer, pH 9.6. Exposed non-specific cell attachment sites were blocked by coating the wells with 3% BSA for 1 h at 25° C. Cells, (1.1×10^5), prepared as described above, were added to each well and incubated at 37° C. for 1 h in a humidified incubator with 5% CO2 --95% air mixture. At the end of incubation, plates were gently washed twice with PBS to remove unattached cells. Attached cells were treated with trypsin and electronically counted. […] Each peptide was tested for cell attachment in six separate experiments.
Tissue culture plates (obtained from Linbro, Flow Laboratories, Inc., Va.) were coated with peptides or proteins at […]. Before coating (a) AP was denatured with 6M Guanidine HCl (GnHCl) for 2 h at 4° C. GnHCl was removed by extensive dialysis against 0.1M bicarbonate buffer, pH 9.6 at 4° C.; (b) AP was heat-denatured at 100° C. for 15 min.; (c) native AP was reduced and the free sulfhydryl groups were blocked by carboxymethylation, and (d) heat-denatured AP was treated as in (c). The values are expressed as the average ± SEM, and are reported hereinbelow in Table I.
In the case of “Native SAP: Amyloid P component isolated from normal human serum, 125 kDa glycoprotein”, the No. attached cells is reported as 3125 ± 348.
“GnHCl-Denatured SAP (a): AP denatured with 6M Guanidine HCl for 2 h at 4° C., GnHCl removed by dialysis” was tested, and the No. attached cells was 3835 ± 424.
Substance “Reduced (native)/carboxy-methylated (c): native AP reduced and the free sulfhydryl groups blocked by carboxymethylation” has a No. attached cells of 2558 ± 428.
“Reduced (heat-denatured SAP)/carboxymethylated (d): heat-denatured AP reduced and carboxymethylated as in (c)” gave a No. attached cells of 3436 ± 396.
Substance “Heat-Denatured SAP (b): AP heat-denatured at 100° C. for 15 min.” has a No. attached cells of 3926 ± 552.
